Experimental data from ChEMBL document CHEMBL4651402, “Screening of ~5500 FDA-approved drugs and clinical candidates for anti-SARS-CoV-2 activity” (2021).
Numbered stars: 1 amine (or outer) side, 2 acyl side, 3 side chain; on linkers, the order of the positions; unused ones are H or OH. Bridge positions count the residues as written; N and C are the ends. Square brackets hold non-standard residues; d marks the D form. Peptide text beside a SMILES is read from it. * marks the point of attachment. X1 = NC1=N[C@@H]([C@H](N[*:1])C(=O)[*:2])C[C@H](O)N1; ΔAla(Z-3-ureido) = NC(=O)N/C=C(\N)C(=O)O; β3hOrn = NCCC[C@H](N)CC(=O)*; Dap = NC[C@H](N)C(=O)O

Test system: SARS-CoV-2
Assay: microbe, parasite or virus in culture
Settings: Severe acute respiratory syndrome coronavirus 2, Vero C1008, 48 h

NCCC[C@H](N)CC(=O)N[C@H]1CNC(=O)[C@H]([C@H]2C[C@H](O)NC(N)=N2)NC(=O)/C(=C/NC(N)=O)NC(=O)[C@H](CO)NC(=O)[C@H](CO)NC1=O [VIOMYCIN] (β3hOrn-[Dap]SS[ΔAla(Z-3-ureido)][X1]; lactam 1-C)
IC50: > 20 µM
IC50 (read-out: pIC50 (converted)): > 20 µM

CC(C)S(=O)(=O)n1c(N)nc2ccc(C(=NO)c3ccccc3)cc21 [VIROXIME]
IC50: > 20 µM
IC50 (read-out: pIC50 (converted)): > 20 µM

CS(=O)(=O)c1ccc(C(=O)Nc2ccc(Cl)c(-c3ccccn3)c2)c(Cl)c1 [VISMODEGIB]
IC50: > 20 µM
IC50 (read-out: pIC50 (converted)): > 20 µM

COc1c2ccoc2cc2oc(C)cc(=O)c12 [VISNAGIN]
IC50: > 20 µM
IC50 (read-out: pIC50 (converted)): > 20 µM

CNC(=O)c1cccc(-c2ccc3c(N4CCOC[C@@H]4C)nc(N4CCOC[C@@H]4C)nc3n2)c1 [VISTUSERTIB]
IC50: > 20 µM
IC50 (read-out: pIC50 (converted)): > 20 µM

N#CC(O[C@@H]1O[C@H](CO[C@@H]2O[C@H](CO)[C@@H](O)[C@H](O)[C@H]2O)[C@@H](O)[C@H](O)[C@H]1O)c1ccccc1 (stereo partly specified) [VITAMIN B17]
IC50: > 20 µM
IC50 (read-out: pIC50 (converted)): > 20 µM

COc1cccc([C@H](O)C2CCN(CCc3ccc(F)cc3)CC2)c1OC [VOLINANSERIN]
IC50: > 20 µM
IC50 (read-out: pIC50 (converted)): > 20 µM

C[C@@H](c1ncncc1F)[C@](O)(Cn1cncn1)c1ccc(F)cc1F [VORICONAZOLE]
IC50: > 20 µM
IC50 (read-out: pIC50 (converted)): > 20 µM

Cc1nnnn1N=Cc1ccc(O)c(C(c2ccc(O)cc2)c2cc(C=Nn3nnnc3C)ccc2O)c1 (stereo unspecified) [VP-14637]
IC50: > 20 µM
IC50 (read-out: pIC50 (converted)): > 20 µM

COC(=O)/C(=C1/OC(=O)C(c2ccccc2)=C1O)c1ccccc1 [VULPINIC ACID]
IC50: > 20 µM
IC50 (read-out: pIC50 (converted)): > 20 µM

CC(C)OC(=O)[C@H](C)NP(=S)(OC[C@H]1O[C@@H](n2ccc(=O)[nH]c2=O)[C@](C)(O)[C@@H]1O)Oc1ccccc1 (stereo partly specified) [VX-135]
IC50: > 20 µM
IC50 (read-out: pIC50 (converted)): > 20 µM

NC(=O)c1ccc(N(C(N)=O)c2c(F)cccc2F)nc1-c1ccc(F)cc1F [VX-702]
IC50: > 20 µM
IC50 (read-out: pIC50 (converted)): > 20 µM

CC(=O)CC(c1ccccc1)c1c(O)c2ccccc2oc1=O (stereo unspecified) [WARFARIN]
IC50: > 20 µM
IC50 (read-out: pIC50 (converted)): > 20 µM

Cc1cc(CCCCCOc2c(Cl)cc(C3=NCCO3)cc2Cl)on1 [WIN-54954]
IC50: > 20 µM
IC50 (read-out: pIC50 (converted)): > 20 µM

FC(F)(F)c1cccc(C2=CCN(CCc3ccc4ccccc4c3)CC2)c1 [XALIPRODEN]
IC50: > 20 µM
IC50 (read-out: pIC50 (converted)): > 20 µM

O=C(NCCNCC(O)COc1ccc(O)cc1)N1CCOCC1 (stereo unspecified) [XAMOTEROL]
IC50: > 20 µM
IC50 (read-out: pIC50 (converted)): > 20 µM

CCCCCCOc1nsnc1C1=CCCN(C)C1 [XANOMELINE]
IC50: > 20 µM
IC50 (read-out: pIC50 (converted)): > 20 µM

CN(CCO)CC(O)Cn1cnc2c1c(=O)n(C)c(=O)n2C (stereo unspecified) [XANTHINOL]
IC50: > 20 µM
IC50 (read-out: pIC50 (converted)): > 20 µM

COc1cc(O)c(C(C)=O)c(OC)c1 [XANTHOXYLIN]
IC50: > 20 µM
IC50 (read-out: pIC50 (converted)): > 20 µM

O=C(O)c1cc(O)c2cccc(O)c2n1 [XANTHURENATE]
IC50: > 20 µM
IC50 (read-out: pIC50 (converted)): > 20 µM

CCC(C(=O)O)c1ccc(-c2ccccc2)cc1 (stereo unspecified) [XENBUCIN]
IC50: > 20 µM
IC50 (read-out: pIC50 (converted)): > 20 µM

Cc1cccc(C)c1NC(=O)c1cc(S(N)(=O)=O)c(Cl)cc1O [XIPAMIDE]
IC50: > 20 µM
IC50 (read-out: pIC50 (converted)): > 20 µM

Cc1cccc(C)c1NC1=NCCCS1 [XYLAZINE]
IC50: > 20 µM
IC50 (read-out: pIC50 (converted)): > 20 µM

OC[C@@H](O)[C@H](O)[C@@H](O)CO [XYLITOL]
IC50: > 20 µM
IC50 (read-out: pIC50 (converted)): > 20 µM

Cc1cc(C(C)(C)C)cc(C)c1CC1=NCCN1 [XYLOMETAZOLINE]
IC50: > 20 µM
IC50 (read-out: pIC50 (converted)): > 20 µM

C[C@@H](N)c1ccc(C(=O)Nc2ccnc3[nH]ccc23)cc1 [Y-39983]
IC50: > 20 µM
IC50 (read-out: pIC50 (converted)): > 20 µM

O=c1[nH]c2cc(-n3ccnc3)c([N+](=O)[O-])cc2[nH]c1=O [YM-90K]
IC50: > 20 µM
IC50 (read-out: pIC50 (converted)): > 20 µM

O=C(O)[C@@H]1[C@H]2C[C@H]3c4[nH]c5ccccc5c4CCN3C[C@@H]2CC[C@@H]1O [YOHIMBIC ACID]
IC50: > 20 µM
IC50 (read-out: pIC50 (converted)): > 20 µM
